According to the NIST ThermoML archive (doi:10.1016/j.fluid.2015.07.004):

Columns and labels:
[1] = mn = molality of the nth substance listed, in mol/kg; details: 298 K, 100 kPa, Liquid, Vibrating tube method
[2] = osmotic coefficient (dimensionless); mn = molality of the nth substance listed, in mol/kg; details: 100 kPa, Liquid, boiling point elevation

CN(C)CC(=O)O [(Dimethylamino)acetic acid] + O
[1]
Details	mass density [kg/m3]
m1 = 0.4001	1005.64
m1 = 1.003	1016.88
m1 = 1.401	1024.01
m1 = 1.992	1033.69

[2]
Details	osmotic coefficient
310.15 K, m1 = 0.0986	1.069
310.15 K, m1 = 0.2005	1.035
310.15 K, m1 = 0.4001	1.072
310.15 K, m1 = 0.8024	1.076
310.15 K, m1 = 1.003	1.126
310.15 K, m1 = 1.193	1.141
310.15 K, m1 = 1.401	1.147
310.15 K, m1 = 1.585	1.154
310.15 K, m1 = 1.797	1.169
310.15 K, m1 = 1.992	1.206
323.15 K, m1 = 0.2056	0.981
323.15 K, m1 = 0.2889	0.989
323.15 K, m1 = 0.4998	1.008
323.15 K, m1 = 1.015	1.021
323.15 K, m1 = 1.5	1.114

NC(=O)NCCC[C@H](N)C(=O)O [N5-aminocarbonyl-L-ornithine] + O
[1]
Details	mass density [kg/m3]
m1 = 0.1989	1008.22
m1 = 0.3842	1018.59
m1 = 0.6007	1029

osmotic coefficient, [2]
Details	m1 = 0.1011	m1 = 0.1989	m1 = 0.2016	m1 = 0.3942	m1 = 0.402	m1 = 0.4915	m1 = 0.6001	m1 = 0.6892
310.15 K	1.011	1.003	–	0.9986	–	0.9973	–	1.002
323.15 K	–	–	1.007	–	1.001	–	0.9931	–

C[N+](C)(C)[O-] [trimethylamine oxide] + O
[1]
Details	mass density [kg/m3]
m1 = 0.406	998.235
m1 = 0.7971	999.133
m1 = 1.199	1000.21
m1 = 1.59	1001.54
m1 = 2.002	1002.01
m1 = 2.445	1003.03

[2]
Details	osmotic coefficient
310.15 K, m1 = 0.1988	0.9879
310.15 K, m1 = 0.406	1.034
310.15 K, m1 = 0.62	1.062
310.15 K, m1 = 0.7971	1.152
310.15 K, m1 = 0.9921	1.133
310.15 K, m1 = 1.199	1.15
310.15 K, m1 = 1.392	1.192
310.15 K, m1 = 1.59	1.31
323.15 K, m1 = 0.5008	1.076
323.15 K, m1 = 1.015	1.171
323.15 K, m1 = 1.5	1.27

OC[C@H]1O[C@H](O[C@H]2O[C@H](CO)[C@@H](O)[C@H](O)[C@H]2O)[C@H](O)[C@@H](O)[C@@H]1O [α-trehalose] + O
[1]
Details	mass density [kg/m3]
m1 = 0.1997	1022.61
m1 = 0.3989	1046.2
m1 = 0.5995	1068.34
m1 = 0.7914	1087.59

[2], 310.15 K
Details	osmotic coefficient
m1 = 0.0499	1.031
m1 = 0.0998	1.036
m1 = 0.1997	1.02
m1 = 0.2995	0.999
m1 = 0.3989	1.01
m1 = 0.4992	1.022
m1 = 0.5995	0.9904
m1 = 0.6932	1.019
m1 = 1.469	1.063
m1 = 1.982	1.08
